Molecules are shown by their SMILES. Where a SMILES comes first, the peptide text is derived from it. Bridges are numbered along the chain shown (N, C = ends). [ ]: non-standard residue; d: D form. The star is where a group is joined. Threoninol(2S,3R) = C[C@@H](O)[C@H](CO)N*

For one experiment, the target named is Melanocortin receptor 3 (Homo sapiens, UniProt P41968). It counts as cell membranes, Membrane. Conditions: hek293. Further: in other assays of this panel Not Active means under 50% inhibition at 10 µM.
Chain of Melanocortin receptor 3 (P41968 whole entry): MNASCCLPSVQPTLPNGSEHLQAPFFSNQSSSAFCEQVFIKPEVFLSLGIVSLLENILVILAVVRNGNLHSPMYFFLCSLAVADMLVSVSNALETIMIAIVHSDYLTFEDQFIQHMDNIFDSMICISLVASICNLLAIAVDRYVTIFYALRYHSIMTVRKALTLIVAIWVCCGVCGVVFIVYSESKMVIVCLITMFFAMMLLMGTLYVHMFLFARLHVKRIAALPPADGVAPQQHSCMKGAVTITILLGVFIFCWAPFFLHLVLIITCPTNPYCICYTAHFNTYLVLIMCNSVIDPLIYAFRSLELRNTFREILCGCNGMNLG
Experiment [1] deals with Sodium-dependent dopamine transporter (Homo sapiens, UniProt Q01959). The experiment in a line: DRUGMATRIX: Dopamine Transporter radioligand binding (ligand: [125I] RTI-55). It is filed as cell membranes, CHO-K1, Membrane. Conditions: cho-k1; Not Active = under 50% inhibition at 10 µM.
Chain of Sodium-dependent dopamine transporter (Q01959 whole entry): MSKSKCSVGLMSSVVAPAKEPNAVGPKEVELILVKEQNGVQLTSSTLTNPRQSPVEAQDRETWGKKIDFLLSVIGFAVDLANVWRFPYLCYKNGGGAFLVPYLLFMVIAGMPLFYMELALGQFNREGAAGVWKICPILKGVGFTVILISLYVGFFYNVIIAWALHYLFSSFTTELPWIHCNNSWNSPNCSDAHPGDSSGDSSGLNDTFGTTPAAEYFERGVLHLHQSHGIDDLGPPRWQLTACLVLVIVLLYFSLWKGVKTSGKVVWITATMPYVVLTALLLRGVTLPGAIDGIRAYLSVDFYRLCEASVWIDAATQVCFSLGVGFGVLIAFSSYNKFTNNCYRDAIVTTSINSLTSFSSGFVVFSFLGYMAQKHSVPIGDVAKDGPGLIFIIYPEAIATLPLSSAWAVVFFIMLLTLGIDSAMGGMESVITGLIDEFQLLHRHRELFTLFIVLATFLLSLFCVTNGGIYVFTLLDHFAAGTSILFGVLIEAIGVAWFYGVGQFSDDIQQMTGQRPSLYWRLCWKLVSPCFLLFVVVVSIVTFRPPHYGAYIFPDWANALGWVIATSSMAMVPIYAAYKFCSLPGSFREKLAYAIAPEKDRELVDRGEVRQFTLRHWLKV
Experiment [2] addresses T1, Vasoactive intestinal polypeptide receptor 1 (Homo sapiens, UniProt P32241).
T1 sequence (P32241 whole entry): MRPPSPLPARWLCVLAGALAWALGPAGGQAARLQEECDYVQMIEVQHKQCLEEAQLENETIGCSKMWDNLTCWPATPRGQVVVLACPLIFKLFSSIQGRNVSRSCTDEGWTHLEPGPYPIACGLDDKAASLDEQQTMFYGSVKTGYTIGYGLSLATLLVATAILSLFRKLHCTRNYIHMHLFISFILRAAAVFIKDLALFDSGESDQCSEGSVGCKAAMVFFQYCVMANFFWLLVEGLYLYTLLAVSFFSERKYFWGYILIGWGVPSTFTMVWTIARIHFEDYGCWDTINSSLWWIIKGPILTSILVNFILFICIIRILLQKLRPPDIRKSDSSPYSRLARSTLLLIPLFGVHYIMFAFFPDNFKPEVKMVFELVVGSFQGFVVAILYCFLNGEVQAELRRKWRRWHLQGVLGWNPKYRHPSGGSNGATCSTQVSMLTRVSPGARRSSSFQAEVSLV
It is filed as cell membranes, Membrane. Conditions: ht-29.

Experiment [3] in a line: DRUGMATRIX: beta-Lactamase enzyme inhibition (substrate: Nitrocefin). Details: species or system Bacillus cereus. Conditions: Not Active = under 50% inhibition at 10 µM.
The nature of experiment [4]: DRUGMATRIX: Nicotinic Acetylcholine radioligand binding (ligand: [125I] Epibatidine). Conditions: imr-32; Not Active = under 50% inhibition at 10 µM. It is filed as cell membranes, Membrane.
Experiment [5] in a line: DRUGMATRIX: Calcium Channel Type L, Phenylalkylamine radioligand binding (ligand: [3H] (-)-Desmethoxyverapamil (D-888)). It is filed as cell membranes, Rattus norvegicus, Wistar, Brain, Membrane. Conditions: Not Active = under 50% inhibition at 10 µM.
The next experiment deals with T2, Adenosine receptor A3 (Homo sapiens, UniProt P0DMS8).
T2 sequence (P0DMS8 whole entry): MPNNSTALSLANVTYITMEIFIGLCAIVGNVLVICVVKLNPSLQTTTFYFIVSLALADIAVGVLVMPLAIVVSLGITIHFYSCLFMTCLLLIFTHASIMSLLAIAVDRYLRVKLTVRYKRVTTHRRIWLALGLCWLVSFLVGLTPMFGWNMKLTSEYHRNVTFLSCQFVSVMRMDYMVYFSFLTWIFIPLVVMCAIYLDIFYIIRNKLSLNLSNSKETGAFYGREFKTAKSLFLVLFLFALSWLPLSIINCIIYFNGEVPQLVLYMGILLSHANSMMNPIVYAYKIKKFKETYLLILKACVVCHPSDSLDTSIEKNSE
It is filed as cell membranes, CHO-K1, Membrane.

Broadly, the IC50 is the concentration at which inhibition is half-maximal. By Ki is commonly meant a measure of affinity in units of concentration, obtained from inhibition or displacement. Consider `COc1ccccc1C(=O)N1CCC(Cc2ccccc2)CC1`, for which the IC50 result (against Melanocortin receptor 3; in experiment [1]; in experiment [2]; in experiment [3]; in experiment [4]; in experiment [5]) was “Not Active” each time. Further, the IC50 entry on Adenosine receptor A3 (cho-k1) was “Not Active”. Also, the inhibitory constant (Ki) entry in experiment [3], in experiment [4] and in experiment [5] was “Not Active” throughout.

In the case of `Cc1ccccc1C(=O)N1CCC(Cc2ccccc2)CC1`, the IC50 entry (against Melanocortin receptor 3; in experiment [1]; in experiment [2]; in experiment [3]; in experiment [4]; in experiment [5]) was “Not Active” in each case. Moreover, at Adenosine receptor A3 (cho-k1), the IC50 entry is recorded as “Not Active”. Further, the Ki result in experiment [3], in experiment [4] and in experiment [5] was “Not Active” throughout.

For `O=C1CC[C@H](N2C(=O)c3ccccc3C2=O)C(=O)N1`, the IC50 entry (at Melanocortin receptor 3; in experiment [1]; in experiment [2]; in experiment [3]; in experiment [4]; in experiment [5]) was “Not Active” each time. Also, the IC50 result against Adenosine receptor A3 (cho-k1) is “Not Active”. Besides, the Ki result in experiment [3], in experiment [4] and in experiment [5] was “Not Active” throughout.

For `N=C(Nc1ccccc1)Nc1ccccc1`, the IC50 entry (against Melanocortin receptor 3; in experiment [1]; in experiment [2]; in experiment [3]; in experiment [4]; in experiment [5]) was “Not Active” throughout. The IC50 entry against Adenosine receptor A3 (cho-k1) is reported as “Not Active”. In addition, the Ki result in experiment [3], in experiment [4] and in experiment [5] was “Not Active” throughout.

For the molecule `C[C@@H](O)[C@H](CO)NC(=O)[C@@H]1CSSC[C@H](NC(=O)[C@H](N)Cc2ccccc2)C(=O)N[C@@H](Cc2ccccc2)C(=O)N[C@H](Cc2c[nH]c3ccccc23)C(=O)N[C@@H](CCCCN)C(=O)N[C@@H]([C@@H](C)O)C(=O)N1` (H-[dF]CF[dW]KTC-{Threoninol(2S,3R)}; disulfide 2-7), the IC50 result (on Melanocortin receptor 3; in experiment [1]; in experiment [2]; in experiment [3]; in experiment [4]; in experiment [5]) was “Not Active” each time. For the same molecule, the IC50 entry on Adenosine receptor A3 (cho-k1) was “Not Active”. The Ki entry in experiment [3], in experiment [4] and in experiment [5] was “Not Active” each time.

In the case of `S=C=Nc1cccc2ccccc12` [1-NAPHTHYLISOTHIOCYANATE], the IC50 entry (on Melanocortin receptor 3; in experiment [1]; in experiment [2]; in experiment [3]; in experiment [4]; in experiment [5]) was “Not Active” each time. At Adenosine receptor A3 (read-out: IC50), the IC50 is 6.1 µM. The Ki result in experiment [3] is “Not Active”; in experiment [4], “Not Active”; in experiment [5] it was “Not Active”; on Adenosine receptor A3 (read-out: Ki), 3.45 µM.

For `C[C@](O)(CS(=O)(=O)c1ccc(F)cc1)C(=O)Nc1ccc(C#N)c(C(F)(F)F)c1` [(R)-BICALUTAMIDE], the concentration for half-maximal inhibition (IC50) entry (against Melanocortin receptor 3; in experiment [1]; in experiment [2]; in experiment [3]; in experiment [4]; in experiment [5]) was “Not Active” in each case. Besides, at Adenosine receptor A3 (cho-k1), the IC50 entry is recorded as “Not Active”. Besides, the Ki entry in experiment [3], in experiment [4] and in experiment [5] was “Not Active” in each case.

On to `CCCC(=O)Nc1ccc(OCC(O)CNC(C)C)c(C(C)=O)c1` (stereo not given) [ACEBUTOLOL], for which the IC50 entry (against Melanocortin receptor 3; in experiment [1]; in experiment [2]; in experiment [3]; in experiment [4]; in experiment [5]) was “Not Active” in each case. In addition, the IC50 entry at Adenosine receptor A3 (cho-k1) is “Not Active”. In addition, the Ki entry in experiment [3], in experiment [4] and in experiment [5] was “Not Active” in each case.

Turning to `CC(=O)Nc1ccc(O)cc1` [ACETAMINOPHEN], the IC50 entry (against Melanocortin receptor 3; in experiment [1]; in experiment [2]; in experiment [3]; in experiment [4]; in experiment [5]) was “Not Active” in each case. In addition, the IC50 result against Adenosine receptor A3 (cho-k1) is reported as “Not Active”. Moreover, the Ki entry in experiment [3], in experiment [4] and in experiment [5] was “Not Active” throughout.

For `COc1cc2c(c3oc(=O)c4c(c13)CCC4=O)[C@@H]1C=CO[C@@H]1O2` [AFLATOXIN], the IC50 result (against Melanocortin receptor 3; in experiment [1]; in experiment [2]; in experiment [3]; in experiment [4]; in experiment [5]) was “Not Active” each time. Moreover, the IC50 result on Adenosine receptor A3 (cho-k1) was “Not Active”. Further, the Ki entry (on Melanocortin receptor 3; in experiment [1]; in experiment [2]; in experiment [3]; in experiment [4]; in experiment [5]) was “Not Active” in each case. Also, at Adenosine receptor A3 (cho-k1), the Ki entry is reported as “Not Active”.

On to `N=C(N)NC(=O)c1nc(Cl)c(N)nc1N` [AMILORIDE], for which the IC50 result (on Melanocortin receptor 3; in experiment [1]; in experiment [2]; in experiment [3]; in experiment [4]; in experiment [5]) was “Not Active” in each case. The IC50 entry against Adenosine receptor A3 (cho-k1) is “Not Active”. Further, the inhibition constant (Ki) result in experiment [3], in experiment [4] and in experiment [5] was “Not Active” throughout.

Consider `Cc1cc(=O)n(-c2ccccc2)n1C` [ANTIPYRINE], for which the IC50 result (at Melanocortin receptor 3; in experiment [1]; in experiment [2]; in experiment [3]; in experiment [4]; in experiment [5]) was “Not Active” in each case. For the same molecule, the IC50 entry against Adenosine receptor A3 (cho-k1) is “Not Active”. Also, the Ki result in experiment [3], in experiment [4] and in experiment [5] was “Not Active” in each case.

`CN1C(=O)COc2c(C(=O)NC3CN4CCC3CC4)cc(Cl)cc21` (stereo not given) [AZASETRON]: the IC50 result (against Melanocortin receptor 3; in experiment [1]; in experiment [2]; in experiment [3]; in experiment [4]; in experiment [5]) was “Not Active” in each case. Further, the 50% inhibitory concentration (IC50) entry against Adenosine receptor A3 (cho-k1) is reported as “Not Active”. Moreover, the Ki entry in experiment [3], in experiment [4] and in experiment [5] was “Not Active” throughout.

On to `C[C@H]1C[C@H]2[C@@H]3CCC4=CC(=O)C=C[C@]4(C)[C@@]3(Cl)[C@@H](O)C[C@]2(C)[C@@]1(O)C(=O)CO` [BECLOMETHASONE], for which the IC50 entry (against Melanocortin receptor 3; in experiment [1]; in experiment [2]; in experiment [3]; in experiment [4]; in experiment [5]) was “Not Active” throughout. Further, at Adenosine receptor A3 (cho-k1), the IC50 entry is listed as “Not Active”. The Ki entry in experiment [3], in experiment [4] and in experiment [5] was “Not Active” each time.

With `CCOC(=O)[C@H](CCc1ccccc1)N[C@H]1CCc2ccccc2N(CC(=O)O)C1=O` [BENAZEPRIL], the half-inhibitory concentration (IC50) entry (on Melanocortin receptor 3; in experiment [1]; in experiment [2]; in experiment [3]; in experiment [4]; in experiment [5]) was “Not Active” throughout. The IC50 result on Adenosine receptor A3 (cho-k1) is reported as “Not Active”. Further, the Ki entry in experiment [3], in experiment [4] and in experiment [5] was “Not Active” throughout.

As to `Nc1c(CC(=O)O)cccc1C(=O)c1ccc(Br)cc1` [BROMFENAC], the IC50 result (at Melanocortin receptor 3; in experiment [1]; in experiment [2]; in experiment [3]; in experiment [4]; in experiment [5]) was “Not Active” each time. Besides, at Adenosine receptor A3 (cho-k1), the IC50 entry is recorded as “Not Active”. Further, the Ki result in experiment [3], in experiment [4] and in experiment [5] was “Not Active” each time.

Take `CCCCN1CCCCC1C(=O)Nc1c(C)cccc1C.Cl` (stereo not given) [BUPIVACAINE HYDROCHLORIDE]: the IC50 entry (against Melanocortin receptor 3; in experiment [1]; in experiment [2]; in experiment [3]; in experiment [4]; in experiment [5]) was “Not Active” in each case. Besides, the IC50 entry on Adenosine receptor A3 (cho-k1) is “Not Active”. Besides, the Ki entry in experiment [3], in experiment [4] and in experiment [5] was “Not Active” in each case.

These data come from ChEMBL document CHEMBL1909046, “DrugMatrix in vitro pharmacology data”.
